This assay addresses T1, human CB2R (Homo sapiens, UniProt P34972).
T1 construct: host or cells: CHO cells
As to the kind of experiment: CB2R mediated modulation of cAMP synthesis. Format: cell-based. The conditions noted are these: CHO cells expressing human CB2R, inhibition of forskolin-stimulated cAMP synthesis, agonist; for EC50: CB2 EC50 (nM); for pEC50: read-out: CB2 EC50. How it is done:
B. CB2R Mediated Modulation of cAMP Synthesis:
Compounds of the invention were evaluated for their CB2 agonist or inverse agonistic activity in accordance with the following experimental method.
CHO cells expressing human CB2R (Euroscreen) were plated at a density of 5000 cells per well in 384 well plates and incubated overnight at 37° C. After removing the media, the cells were treated with test compounds diluted in stimulation buffer containing 1 mM IBMX, 0.25% BSA and 10 uM Forskolin. The assay was incubated for 30 minutes at 37° C. Cells were lysed and the cAMP concentration was measured using DiscoverX-XS cAMP kit, following the manufacturer's protocol. In this setting, agonists will decrease forskolin induced production of cAMP while inverse agonists will further increase forskolin induced production of cAMP. EC50 of agonists were calculated as follows. The maximal amount of cAMP produced by forskolin compared to the level of cAMP inhibited by 1 uM CP55940 is defined as 100%. The EC50 value of each test compound was determined as the concentration at which 50% of the forskolin-stimulated cAMP synthesis was inhibited. Data was analyzed using a four-parameter logistic model. (Model 205 of XLfit 4.0).

Structures are written as SMILES. pEC50: −log10 of the molar value. Where two headings read alike, the source gives them in different places.

A word on the EC50: it is the concentration that produces a half-maximal response. Higher therefore signals a less potent agent. The pEC50 is −log10 of the EC50, conventionally taken in molar units.

T1 sequence (P34972 whole entry): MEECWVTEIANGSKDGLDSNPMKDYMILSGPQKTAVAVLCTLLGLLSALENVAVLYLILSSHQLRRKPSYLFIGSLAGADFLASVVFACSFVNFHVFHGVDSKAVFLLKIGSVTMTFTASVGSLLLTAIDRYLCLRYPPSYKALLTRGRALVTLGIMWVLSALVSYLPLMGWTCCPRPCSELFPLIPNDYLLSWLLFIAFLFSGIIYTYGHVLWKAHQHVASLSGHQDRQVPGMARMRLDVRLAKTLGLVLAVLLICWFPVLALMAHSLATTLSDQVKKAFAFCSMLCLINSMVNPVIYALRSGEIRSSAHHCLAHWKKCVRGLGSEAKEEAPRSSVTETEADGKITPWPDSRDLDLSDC

`CC(C)(C)c1nsc(NC(=O)[C@@H]2CCN2C2CCOCC2)n1` had an EC50 of 471 nM.
With `CC(C)(C)c1cc(NC(=O)[C@@H]2CCN2S(=O)(=O)c2ccc(S(C)(=O)=O)cc2)no1`, the response was half-maximal at 197 nM (EC50).
Regarding `CC(C)(C)c1cc(NC(=O)[C@@H]2CCN2c2ccc(Cl)cc2)no1`, a half-maximal response (EC50) required 1.7 nM.
In turn, `CC(C)(C)c1cc(NC(=O)[C@@H]2CCN2C2CCOCC2)no1` [drawing 132] had an EC50 of 18 nM.
On to `O=C(Nc1nc(C2CCCCC2)cs1)[C@@H]1CCN1C1CCOCC1`, for which a half-maximal response (EC50) required 56 nM.
Regarding `O=C(Nc1nc2cc(Cl)ccc2s1)[C@@H]1CCN1C1CCOCC1`, it took 86 nM to reach a half-maximal effect (EC50).
Still for that read-out and setting: the result for `CC(C)(C)c1coc(NC(=O)[C@@H]2CCN2C2CCOCC2)n1` reads 206 nM.
On to `O=C(Nc1ccc(C(F)(F)F)c(F)c1)[C@@H]1CCN1C1CCOCC1`, for which the pEC50 was 6.43.
Turning to `O=C(Nc1nc(-c2ccccc2)cs1)[C@@H]1CCN1C1CCOCC1`, the pEC50 is 6.33.
`CC(C)(C)c1cc(NC(=O)[C@@H]2CCN2C2CCOCC2)sn1` had an EC50 of 313 nM.
Compound `CCCS(=O)(=O)N1CC[C@H]1C(=O)Nc1cc(C(C)(C)C)on1` yielded an EC50 of 157 nM.
The compound `COCC(C)(C)c1cc(NC(=O)[C@@H]2CCN2c2ccc(F)cc2)no1` gave an EC50 of 7.7 nM.
`O=C(Nc1nc(-c2ccc(F)c(F)c2)cs1)[C@@H]1CCN1C1CCOCC1` displayed an EC50 of 203 nM.
`CC(C)(CO)c1cc(NC(=O)[C@@H]2CCN2c2ncc(C(F)(F)F)cc2Cl)on1` gave an EC50 of 0.12 nM.
`CC(C)(C)c1cc(NC(=O)[C@@H]2CCN2C(=O)C2CCC(F)(F)CC2)no1`: the pEC50 is 6.90.
`O=C(Nc1nc2c(F)cccc2s1)[C@@H]1CCN1C1CCOCC1` came in with an EC50 of 153 nM.
On the same count and under the same terms, the result for `CC(C)N1CC[C@H]1C(=O)Nc1cc(C(C)(C)C)no1` reads 26 nM; that for `CC(C)(C)Cc1cc(NC(=O)[C@@H]2CCN2C2CCOCC2)on1`, 243 nM; that for `CC(C)(C)c1cc(NC(=O)[C@@H]2CCN2C2CCCCC2)on1`, 0.08 nM.
On to `O=C(Nc1cc(C(F)(F)F)no1)[C@@H]1CCN1c1ccc(Cl)cc1`, for which the half-maximal effective concentration (EC50) is 43 nM.
With `COCC(C)(C)c1cc(NC(=O)[C@@H]2CCN2c2ccc(Cl)cc2)no1`, the EC50 was 12 nM.
In turn, `CCc1sc(NC(=O)[C@@H]2CCN2c2ncc(C(F)(F)F)cc2Cl)nc1-c1ccccc1` registered an EC50 of 2.7 nM.
On to `CCc1sc(NC(=O)[C@@H]2CCN2c2ccc(C(F)(F)F)cn2)nc1-c1ccccc1`, for which the EC50 amounted to 128 nM.
Still for that read-out and setting: the result for `CCc1sc(NC(=O)[C@@H]2CCN2CC2CCOCC2)nc1-c1ccccc1` reads 4.1 nM; that for `CC(C)(C)c1cc(NC(=O)[C@@H]2CC(=O)N2c2ccc(Cl)cc2)no1`, 50 nM.
With `CC(C)(C)c1cc(NC(=O)[C@@H]2CCN2c2ncc(C(F)(F)F)cc2Cl)no1` [drawing 125], it took 0.02 nM to reach a half-maximal effect (EC50).
On to `CC(C)(C)c1cc(NC(=O)[C@@H]2CCN2C2CCCC2)on1`, for which a half-maximal response (EC50) required 6.6 nM.
Same read-out and setting: the figure for `CC(C)(C)c1cc(NC(=O)[C@@H]2CC(=O)N2c2ccc(Cl)cc2)on1` is 17 nM.
`CC(C)(CO)c1cc(NC(=O)[C@@H]2CCN2c2ccc(Cl)cc2)on1`: the EC50 was found to be 18 nM.
`CC(C)(CO)c1cc(NC(=O)[C@@H]2CCN2c2ccc(C(F)(F)F)cn2)on1` came in with an EC50 of 18 nM.
`CC(C)(C)c1cc(NC(=O)[C@@H]2CCN2c2ncc(C(F)(F)F)cc2Cl)no1` [drawing 126] yielded an EC50 of 0.05 nM.
Turning to `COCC(C)(C)c1cc(NC(=O)[C@@H]2CCN2c2ccc(F)cc2)on1`, the EC50 is 5.6 nM.
Take `CC(C)(CO)c1cc(NC(=O)[C@@H]2CCN2c2ccc(F)cc2)on1`: the EC50 is 22 nM.
`CC(C)(C)c1cc(NC(=O)[C@@H]2CCN2Cc2ccc(F)c(F)c2)on1` showed an EC50 of 14 nM.
`CC(C)(C)c1cc(NC(=O)[C@@H]2CCN2c2ccc(Cl)cc2)on1`: a half-maximal response (EC50) required 0.75 nM.
With `CC(C)(C)c1cc(NC(=O)[C@@H]2CCN2C2CCOCC2)no1` [drawing 128], the half-maximal effective concentration (EC50) is 8.8 nM.
Compound `CCc1sc(NC(=O)[C@@H]2CCN2C2CCOCC2)nc1-c1ccccc1` returned an EC50 of 116 nM.
Same read-out and setting: the result for `CC(C)(C)c1cc(NC(=O)[C@@H]2CCN2c2ccc(C(F)(F)F)cn2)on1` reads 0.67 nM.
For the compound `COCC(C)(C)c1cc(NC(=O)[C@@H]2CCN2C2CCOCC2)on1`, the EC50 amounted to 75 nM.
The compound `CC(C)(C)c1cc(NC(=O)[C@@H]2CCN2S(=O)(=O)c2ccc(S(C)(=O)=O)cc2)on1` gave an EC50 of 357 nM.
